Entries after “also recorded” stand apart in the source; their conditions may differ. Where two headings read alike, the source gives them in different places. Non-standard residues stand in square brackets, D forms with d. Residues, ends and D or L forms follow the SMILES beside them. pGlu = O=C1CC[C@@H](C(=O)O)N1
Key:
[1] = target: GnRH receptor (HepG2 membrane preparation); experiment: GnRH in vitro binding to HepG2 membrane preparation (radioreceptor assay); parameters: species or system human; settings: for Kd: 95% confidence interval in parentheses; for Displacement / competitive inhibition of labeled [D-Lys6]-GnRH binding to HepG2 membrane preparation: unlabeled non-GnRH peptides, FIG. 2B
Procedure: (§1) Cells were grown to confluence as previously described and harvested from the flasks by using a rubber policeman. The cells were washed in normal assay buffer (([…] Tris[hydroxymethyl] aminomethane[Tris]-HCl), containing 1 mM dithiothreitol and 0.5% BSA [fraction-V] (pH 7.6)) and precipitated by centrifugation at 500g for 5 minutes at 4° C.
(§2) The cleaned cells were homogenized in 50 ml of freshly prepared ice cold 25 mM sucrose in assay buffer containing 1 mM Phenylmethanesulphonyl fluoride and 5 mM Ethylenediaminetetraacetic acid, using a glass TEFLON (polytetra-fluoroethylene) homogenizer, followed by centrifugation at 100 ×g for 5 minutes (4° C.). The supernatant was further centrifuged at 17,000×g for 30 minutes at 4° C., and the pellet (crude membrane preparation) washed briefly and resuspended in the assay buffer (approximately 40-50 μg membrane protein or approximately 1 x 10^6 cell equivalent per 100 μl).
(§3) For protein determination, aliquots of crude membrane preparations were washed twice with double distilled water by centrifugation (25,000 ×g) and assayed for protein content, using BSA as the standard. The binding assay was carried out at 4° C.
(§4) The displacement curves were fitted for both single and two classes of binding sites by computer calculated lines, as described.
(§5) The potency of various GnRH-related peptides in terms of binding (equilibrium dissociation constant; kd) and growth suppression activity in the human hepatocarcinoma derived cell line HepG2 was studied. […] Data analysis was performed as described.
(§6) Homologous displacement of GnRH-related peptides in membrane homogenates prepared from HepG2 cells and non-cancerous postmortem human liver tissue was studied. Values (mean ± SEM) represent specific binding [B/T, bound over total, in %] determined by subtraction of non-saturable binding in the presence of excess peptides (10^-5 M). Results were obtained from 5 to 7 separated experiments, each carried out in triplicate. The binding data were analyzed by computerized Scatchard analysis (LIGAND) according to Munson and Rodbard.

[2] = system: HepG2 cells; experiment: HepG2 cell proliferation (cell counting); assay type: cell-based; settings: for Effect on HepG2 cell proliferation: single administration at 10^-7 M, six days in culture
Procedure: HepG2 or HuH-7 cells were maintained in 75-cm^2 flasks at 37° C. under a humidified atmosphere of 5% CO2 in modified Minimum Essential Medium (Gibco-BRL) supplemented with 10% fetal bovine serum, 200mM 1-Glutamine (1%), Penicillin (1000 IU/ml), streptomycin (100 μg/ml) and sodium bicarbonate (0.15%). Cells grown to confluence were harvested following mild trypsinization and wash (twice by slow centrifugation; 400 g for 10 minutes) in normal culture medium.
Approximately 50,000 cells in 1.0 ml culture media were plated in 24 deep well plates (Flacon). This time was considered day -1. Cells were allowed to grow for one day. The growing cells were then treated with various hormones (at day 0) prepared aseptically in culture media immediately prior to addition. The final volume was maintained at 1 ml. The plates were then incubated at 37° C. for a period of 4 to 6 days, as described above.
Cells in each well were harvested by removal of culture media and incubation with 0.5 ml 0.25% trypsin and 1.75 mM EDTA for 30 minutes at 37° C. Cells were then transferred into 1.5 ml microfuge tubes and centrifuged at 100g for 10 minutes. The supernatant was removed and the pellet was resuspended in a final volume of 200 μl of culture media containing 10% trypan blue.
Cells were then counted using a hemocytometer. The average cell mortality was less than 5.0% and was not different among different treatment groups. Each value represents the mean and standard error of several experiments (n>3), each carried out in quadruplicate incubations at each time point and hormone concentration.
as §5
The effect of GnRH-related peptides on the proliferation of the human hepatoma derived cell line HepG2 was studied. Values (mean ± SEM) represent the percent change with respect to initial cell number at day 0 over a period of six days in culture.
The dose response curves were analyzed by a computerized, four parameter curve fitting program (ALLFIT) as described. The result of time-related response on cell proliferation was analyzed using a two-way ANOVA with multiple comparison means of using computerized statistical package (SYSTAT).

[3] = target: GnRH binding sites (normal rat liver); experiment: GnRH in vitro binding to normal rat liver membrane preparation; settings: 95% confidence interval in parentheses, read-out: Receptor Binding Activity (Kd, nM) Normal Rat Liver
Procedure: as §1, §2
(§7) A similar protocol was used to prepare the membrane from fresh rat and frozen human postmortem liver. In all experiments the final membrane preparation was used in the radioreceptor assay within 45 minutes.
as §3, §4

[4] = system: GnRH binding sites (normal human liver); experiment: GnRH in vitro binding to non-cancerous postmortem human liver membrane preparation; settings: for Displacement / competitive inhibition of labeled [D-Lys6]-GnRH binding to non-cancerous human liver membrane preparation: unlabeled non-GnRH peptides, FIG. 2D; for Kd: 95% confidence interval in parentheses, read-out: Receptor Binding Activity (Kd, nM) Normal Human Liver
Procedure: as §1, §2, §7, §3, §4, §6

[5] = target: T1, normal pituitary cell GnRH receptors (Rattus norvegicus, UniProt P30969); experiment: GnRH binding, normal rat pituitary; settings: 95% confidence interval in parentheses, read-out: Receptor Binding Activity (Kd, nM) Normal Rat
T1 construct: normal pituitary cell GnRH receptors; from tissue; host or cells: normal rat pituitary
T1 sequence (P30969 1-327): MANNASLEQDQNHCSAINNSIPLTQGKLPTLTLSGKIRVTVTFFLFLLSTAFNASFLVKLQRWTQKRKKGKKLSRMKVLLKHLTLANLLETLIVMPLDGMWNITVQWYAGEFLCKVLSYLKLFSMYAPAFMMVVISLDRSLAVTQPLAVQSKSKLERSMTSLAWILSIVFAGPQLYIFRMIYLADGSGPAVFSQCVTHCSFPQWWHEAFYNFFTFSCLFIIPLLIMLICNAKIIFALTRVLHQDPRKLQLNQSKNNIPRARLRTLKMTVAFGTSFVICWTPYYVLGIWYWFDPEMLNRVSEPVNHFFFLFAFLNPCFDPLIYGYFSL
Procedure: as §4
Data analysis was performed as described.

[6] = system: mammalian pituitary; settings: reference [11]; cited from earlier work
[7] = Labeled ligand 125I-[D-Lys6]-GnRH, 4° C.
[8] = Labeled ligand 125I-[D-Lys6]-GnRH
[9] = Labeled ligand 125I-[D-Arg6]-sGnRH-A

Compound	Kd [1, 7] [nM]	Effect on HepG2 cell proliferation [2]	Kd [3, 8] [nM]	Displacement / competitive inhibition of labeled [D-Lys6]-GnRH binding to HepG2 membrane preparation [1]	Displacement / competitive inhibition of labeled [D-Lys6]-GnRH binding to non-cancerous human liver membrane preparation [4]	Kd [5, 8] [nM]	Suppression of HepG2 growth ED50 [2] [nM]	also measured
CC(C)C[C@H](NC(=O)CNC(=O)[C@H](Cc1ccc(O)cc1)NC(=O)[C@H](CO)NC(=O)[C@H](Cc1c[nH]c2ccccc12)NC(=O)[C@H](Cc1c[nH]cn1)NC(=O)[C@@H]1CCC(=O)N1)C(=O)N[C@@H](CCCNC(=N)N)C(=O)N1CCC[C@H]1C(=O)NCC(N)=O [GnRH, reference compound]	9.17	suppressed	384	–	–	–	–	–
NC(=O)[C@@H]1CCCN1C(=O)[C@H](Cc1cnc[nH]1)NC(=O)[C@@H]1CCC(=O)N1 [TRH, Thyrotropin releasing hormone]	–	–	–	did not show competitive inhibition	did not displace	–	–	Displacement / competitive inhibition of labeled [D-Lys6]-GnRH binding to HepG2 membrane preparation ([1]; listed as Thyrotropin releasing hormone (TRH)): did not displace
CCNC(=O)[C@@H]1CCCN1C(=O)[C@H](CC(C)C)NC(=O)[C@H](Cc1c[nH]c2ccccc12)NC(=O)[C@@H](CCCNC(=N)N)NC(=O)[C@H](Cc1ccc(O)cc1)NC(=O)[C@H](CO)NC(=O)[C@H](Cc1c[nH]c2ccccc12)NC(=O)[C@H](Cc1c[nH]cn1)NC(=O)[C@@H]1CCC(=O)N1 [[D-Arg^6]-sGnRH-A, pGlu-His-Trp-Ser-Tyr-DArg-Trp-Leu-Pro-N-ethylamide] ([pGlu]HWSY[dR]WLP-NHEt)	–	–	–	–	–	–	–	Kd [5, 9]: 0.334 nM; Kd [1, 9]: 7.09 nM; Kd [3, 9]: 833 nM; Kd [4, 9]: 3850 nM
CC(C)C[C@H](NC(=O)CNC(=O)[C@H](Cc1c[nH]cn1)NC(=O)[C@H](CO)NC(=O)[C@H](Cc1c[nH]c2ccccc12)NC(=O)[C@H](Cc1c[nH]cn1)NC(=O)[C@@H]1CCC(=O)N1)C(=O)N[C@@H](CC(N)=O)C(=O)N1CCC[C@H]1C(=O)NCC(N)=O [cfGnRH] ([pGlu]HWSHGLNPG-NH2)	17.9	suppressed	8330	–	–	140	2.29	–
CC(C)C[C@H](NC(=O)[C@H](CO)NC(=O)[C@H](Cc1ccc(O)cc1)NC(=O)[C@H](Cc1c[nH]cn1)NC(=O)[C@@H]1CCC(=O)N1)C(=O)N[C@@H](CCC(=O)O)C(=O)N[C@@H](Cc1c[nH]c2ccccc12)C(=O)N[C@@H](CCCCN)C(=O)N1CCC[C@H]1C(=O)NCC(N)=O [lGnRH] ([pGlu]HYSLEWKPG-NH2)	66.6	suppressed	8330	–	–	2	1.5	Gonadotropin release activity in rat and sheep pituitary [6]: little; Potency in releasing gonadotropin from mammalian pituitary compared to mammalian based GnRH analogs [6]: significantly lower potency; Kd [4, 8]: 6660 nM
CC(C)C[C@H](NC(=O)[C@H](Cc1c[nH]c2ccccc12)NC(=O)CNC(=O)[C@H](Cc1ccc(O)cc1)NC(=O)[C@H](CO)NC(=O)[C@H](Cc1c[nH]c2ccccc12)NC(=O)[C@H](Cc1c[nH]cn1)NC(=O)[C@@H]1CCC(=O)N1)C(=O)N1CCC[C@H]1C(=O)NCC(N)=O [sGnRH] ([pGlu]HWSYGWLPG-NH2)	–	suppressed	1560	–	–	179	7.55	Potency in releasing gonadotropin from mammalian pituitary compared to mammalian based GnRH analogs [6]: significantly lower potency; Kd [4, 8]: 7140 nM
Met Enkephalin [Met-Enkephalin]	–	–	–	did not show competitive inhibition	did not displace	–	–	Displacement / competitive inhibition of labeled [D-Lys6]-GnRH binding to HepG2 membrane preparation ([1]; listed as Met Enkephalin): did not displace
α-melanocyte stimulating hormone [α-MSH, reference compound]	–	lack of effect; also recorded: did not	–	did not displace; also recorded: did not show competitive inhibition	did not displace	–	–	–

From patent US5760000A (University Technologies International,Inc., priority 1994, dated 1998)
